Experimental data published in patent US12419951B2, “Preparation of zinc risedronate micro/nano adjuvant and use thereof as vaccine adjuvant” (priority 2019, dated 2025).

Tested on: hepatitis B therapeutic protein
Conditions: same risedronate content as Zn-risedronic acid (1/0.125) group
Method: Using the experimental procedure described in Example 4, mice were immunized with zinc risedronate adjuvant in combination with hepatitis B therapeutic protein by intramuscular injection, and serum antibody titers were detected. The specific method was as follows:
Experimental animals: Balb/C mice, 6-8 weeks, 5 mice/group, female.
Immunization protocol: antigen 1.2 μg/mouse, adjuvant and hepatitis B therapeutic protein were mixed at a volume ratio of 1:1 to form a vaccine, and then injected intramuscularly to mice, 150 μL per mouse, and 75 μL on each hind leg. The immunization was performed on the 0th, 2nd, 3rd, 4th, 5th and 6th week, 1.2 μg of antigen per mouse, blood samples were collected from eye socket after the 6th week, and ELISA was used to determine the levels of specific antibodies in serum.

Question: Which results are given for O=P(O)(O)C(O)(Cc1cccnc1)P(=O)(O)O [sodium risedronate, Risedronate sodium]?
Answer: difference in humoral immune response compared with aluminum adjuvant: no statistically significant difference; humoral immune stimulation effect: a certain humoral immune stimulation effect
